Ends that are not written are not given here.
How the values were obtained:
[1] = tested on: neurogenesis in the MBH and dentate gyrus; assay: BrdU labelling neurogenesis assay with i.c.v. GnRH in old mice; type: in vivo; settings: old C57BL/6 mice; GnRH 1 ng per day i.c.v. (third ventricle); single BrdU injection, 7 days; vs vehicle; FIG. 6a-c
Protocol: (§1) Immunostaining, histology and western blot. Mice under anaesthesia were perfused with 4% paraformaldehyde, and brains were removed, post-fixed in 4% paraformaldehyde, and infiltrated in 20-30% sucrose. Brain sections were made at 10-μm thickness via a cryostat, blocked with serum, penetrated with Triton-X 100, treated overnight at 4° C. with primary antibody, followed by reaction with fluorescence-conjugated secondary antibody (Jackson), and imaged under a confocal microscope. For BrdU staining, sections were pre-treated with 1 M HCl for 30 min at 37° C., followed by 5-min treatment with 0.1 M sodium borate, pH 8.5. Primary antibodies included rabbit anti-Iba-1 (Wako), rabbit anti-GFAP (Millipore), mouse anti-TNF-α (Abcam), mouse anti-NeuN (Millipore), and goat anti-Cre antibody (Santa Cruz). For Nissl staining, freshly isolated mice brains were fixed in 4% paraformaldehyde in PBS for overnight at 4° C. The fixed whole brains were then subjected to cryosectioning coronally, and frozen sections were stained to detect Nissl body by using the NovaUltra Nissl stain kit (IHCWORLD) according to the manufacturer's instruction.
(§2) Serial brain sections across the MBH were made at 20 μm thickness, and every five sections were represented by one section with staining and cell counting. […]

[2] = tested on: BrdU-labelled cells in the MBH and dentate gyrus; assay: BrdU labelling survival assay with i.c.v. GnRH in old mice; type: in vivo; settings: old C57BL/6 mice; GnRH 1 ng per day i.c.v.; 7 days of daily BrdU injections, thirty-day tracking; FIG. 6d, e
Protocol: as §1, §2

[3] = tested on: aging physiology and histology; assay: Daily subcutaneous GnRH therapy: aging physiology and histology (muscle endurance, skeletal muscle fibers, dermal thickness); type: in vivo, C57BL/6 mice
Protocol: (§3) For animal GnRH therapy, mice were subcutaneously injected with GnRH (Sigma) at the dose of 2 ng per mouse on a daily basis for a period of 5-8 weeks. The Institutional Animal Care and Use Committee at the Albert Einstein College of Medicine approved all the procedures. Body weight and food intake were measured regularly using a laboratory scale. The grip test was performed to measure muscle endurance using the method as similarly described in the literature^36,37, using a homemade square grid with a small mesh size to allow mice to hang for longer time. In brief, a mouse was lifted by the tail and placed on a homemade square grid (1-cm mesh size). The grid was then inverted 30.5 cm over a soft pad, and the mouse was allowed to hang by paws for a maximum of 5 min. The time that the mouse was able to hang was recorded during a 5-min test period.
Tissue histology. Skeletal muscles (quadriceps) and dorsal skin were dissected from mice, fixed in 10% neutralized formalin at 4° C. overnight, and embedded into paraffin. Paraffin sections were prepared at 5-μm thickness and subjected to haematoxylin and eosin staining. Images were collected using an Axioskop II light microscope (Zeiss) and analyzed using Image J.

[4] = tested on: aging-related cognitive decline; assay: Daily subcutaneous GnRH therapy: cognition; type: in vivo, C57BL/6 mice; settings: old MBH-ctrl and MBH-IKK-β mice; peripheral (s.c.) GnRH daily, 5 weeks; FIG. 6i
Protocol: as §3
Cognitive behavioral tests. […]
Hidden-platform training. […] Mice were expected to find the location of the invisible platform, and measured for latency to reach the platform, distance travelled to reach the platform, path efficiency, time spent in and distance travelled in each quadrant as well as total distance and mean swim speed.
Probe trial. […] Mice were measured for the amount of time spent in all quadrants, distance and number of times that mice crossed the location of the former platform, and total distance and mean swim speed. […]

With “gonadotropin-releasing hormone (QHWSYGLRPG; ends and bridges not checked; UniProt P01148 24-33, looked up) [GnRH, gonadotropin-releasing hormone (GnRH), obtained from Sigma]” the “aging-diminished neurogenesis (BrdU-labelled cells in hypothalamus and hippocampus)” value [1] was “substantially reversed”, the “survival of BrdU-labelled cells in MBH and dentate gyrus” value [2] was “significantly survived” and the anti-aging phenotype ([3]; MBH-IκB-α mice treated with GnRH, data not shown) was “did not further enhance the anti-aging phenotype”. The “pro-aging phenotype (muscle endurance, muscle fibers, dermal thickness)” value ([3]; old MBH-IKK-β mice, GnRH 2 ng per mouse s.c. daily, 5 weeks, FIG. 6f-h) was “abrogated the pro-aging phenotype”, the “magnitude of aging histology (muscle endurance, muscle fibers, dermal thickness)” value ([3]; old MBH-ctrl mice, GnRH 2 ng per mouse s.c. daily, 5 weeks, FIG. 6f-h) was “reduced the magnitude of aging histology” and the aging-related cognitive decline [4] was “amelioration of aging-related cognitive decline”.
